From BindingDB's records for doi:10.1021/acsmedchemlett.0c00047 (Centre of Experimental Medicine, 2020)

Assay: Inhibition of SERCA1 in rat INS-1E cells assessed as reduction in cell viability incubated for 24 hrs by MTT assay

SMILES | IC50 [µM]
Cc1cc2c3c(c1)-c1c(O)cc(-c4cc5ccc(O)cc5o4)cc1O[C@@]3(c1ccc(O)cc1O)Oc1cc(O)ccc1-2 | 18.2
COc1cc(O)c([C@@H]2CC(=O)c3c(O)cc(O)cc3O2)cc1C/C=C(\C)CCC=C(C)C | 64.8
CC1(C)Oc2cc3oc(-c4cc(O)cc(O)c4)cc3cc2CC1O (stereo not given) [Moracin P] | 109
CC(C)=CCc1c(-c2ccc(O)cc2O)oc2c3c(cc(O)c2c1=O)OC(C)(C)C=C3 [Morusin, 3] | 28.7
CC(C)(O)C1Cc2cc3cc(-c4cc(O)cc(O)c4)oc3cc2O1 (stereo not given) [moracin O] | 111
